Tests used:
CL-1 cells [1] = experiment: Differentiation of CL-1 cells into adipocytes, Oil red O-positive lipid droplets; assay type: cell-based, mouse
Method: Influences of 1,25-dihydroxyvitamin D3 known to inhibit conversion of a adipocyte precursor cell line 3T3-L1 into adipocytes (Comp. Biochem. Physiol. 96A, (1990)) on differentiation of CL-1 cells into adipocytes were examined. CL-1 cells were cultured on a 4-well chamber slide (Nunc) at a cell density of 2500 cells/cm^2 to confluent, after which 1,25-dihydroxyvitamin D3 was added at a final concentration of […] for each medium change.

CL-1 cells [2] = experiment: Stainability of CL-1 cells with Alcian blue (pH 1.0), cartilage-inducing ability; assay type: cell-based, mouse; conditions: for Alcian blue (pH 1.0)-positive nodules: morphologically, compared with the medium alone
Method: In order to examine whether or not CL-1 cells can be used as an in vitro screening system for cartilage-inducing materials, effects of hTGF-β, known to have cartilage-inducing ability (J. Biol. Chem. 261, 5693 (1986)) on the stainability of CL-1 cells with Alcian blue (pH 1.0) were examined. Namely, CL-1 cells were cultured on a 24-well plate (CORNING) at a cell density of 2500 cells/cm^2 to confluent, at which human transforming growth factor-β1 (hTGF-β1; AUSTRAL Biologicals) was added at a concentration of 0.1, 1.0 or 10 ng/ml, and cultivation took place for 3 weeks after the start of the addition with the medium being changed every 2 or 3 days. The addition of hTGF-β1 was performed for each medium change. After completion of cultivation, cells were fixed in 4% paraformaldehyde (Wako Pure Chemical Industries) and washed with water, then treated with 0.1 N hydrochloric acid (Wako Pure Chemical Industries) for 3 minutes, and then stained overnight with an Alcian blue (pH 1.0) solution (concentration: 1%). After completion of staining, samples were washed with distilled water three times and air-dried. The dried samples were immersed in 300 μl of a 6 M guanidine hydrochloride solution (Wako Pure Chemical Industries) for 3 hours and stirred, after which the absorbance of the guanidine hydrochloride solution at 620 nm was determined.

CL-1 cells [3] = experiment: Calcification of CL-1 cells, Ca deposition per dish (O-CPC method); assay type: cell-based, mouse; conditions: 10^−9, 10^−8 or 10^−7 M; vs solvent control, on and after 2 weeks post confluent
Method: CL-1 cells were cultured on a 60-mm dish (CORNING) at a cell density of 2000 cells/cm^2. When cells reached to confluent, 1,25-dihydroxyvitamin D3 was added at a final concentration of 10^−9, 10^−8 or 10^−7 M, then samples were weekly collected for 4 weeks post confluent to determine the Ca content with time. Namely, cell layers were washed with Ca-Mg-free PBS three times, then harvested in a crucible with a cell scraper (Nunc), then dried in an incubator at 60° C., then burned overnight in an oven at 800° C., and the remaining ash was dissolved in 500 μl of 6N hydrochloric acid (Wako Pure Chemical Industries). The Ca content in this solution was determined by the O-CPC method (Ca test Wako, available from Wako Pure Chemical Industries) to calculate the Ca deposition per dish.

CL-1 cells [4] = experiment: Alizarin red S staining of CL-1 nodules; assay type: cell-based, mouse; conditions: 10 mM in medium, cultured one month
Method: CL-1 cells were similarly cultured in the medium supplemented with 10 mM β-glycerophosphate. Then, they were fixed in 4% paraformaldehyde (pH 7.4), washed with distilled water, then stained with a 1% Alizarin red S (Merck) solution for 5 minutes, washed with water and then observed with naked eyes and with an optical microscope.

CL-1 cells [5] = experiment: Uptake of 35S-labeled sulfuric acid into CL-1 cell layers; assay type: cell-based, mouse
Method: CL-1 cells were plated on a polystyrene 96-well plate (Wallac) at a cell density of 2000 cells/well, and incubated in (α-MEM (GIBCO) containing 10% inactivated serum (Intergen), 100 U/ml penicillin and 100 μg/ml streptomycin in an incubator at 37° C., 5% CO2, with the medium being changed with a fresh medium 3 times a week to reach confluency. After confluency was confirmed with a microscope, the medium was changed with a fresh medium containing human TGF-β1 (AUSTRAL BIOLOGICALS) at a concentration of 0.1, 1.0 or 10 ng/ml and incubation was continued. After 24 hours, ^35S-labeled sulfuric acid (Amersham) was added at 0.5 μCi/well and incubation was continued for further 24 hours. Then, the medium was changed with 200 μl of 0.1 M phosphate buffer (pH 7.4) containing 5% paraformaldehyde (Wako Pure Chemical Industries) and 0.4% cetylpyridinium chloride (Wako Pure Chemical Industries) for fixation at room temperature for 2 hours. After CL-1 cell layers were washed once with the same buffer, 100 μl of a liquid scintillator (Optiphase supermix, available from Wallac) was added to each well followed by stirring, so that the radioactivity of ^35S-labeled sulfuric acid incorporated into CL-1 cell layers was determined by a liquid scintillation counter (Microbeta 1450, available from Wallac).

ATDC-5 cells = experiment: Stainability of ATDC-5 cells with Alcian blue (pH 1.0); assay type: cell-based; conditions: 10 μg/ml insulin and 0.1 to 10 ng/ml hTGF-β1, 7 days post confluent
Method: ATDC-5 cells known to differentiate into chondrocytes in the presence of insulin (Cell Diff. Dev. 30, 109 (1990); available from the Cell Bank of The Institute of Physical and Chemical Research) were also cultured by the same procedure in the presence of 10 μg/ml of insulin and 0.1 to 10 ng/ml of hTGF-β1 for 7 days post confluent to examine the stainability with Alcian blue (pH 1.0).

CL-1 cells [6] = experiment: Cartilage destruction: Alcian blue stainability of hTGF-β1-enhanced CL-1 cells; assay type: cell-based, mouse
Method: This example relates to an examination about whether or not cartilage-like nodules formed by culturing CL-1 cells in the presence of hTGF-β1 are destroyed by inflammatory cytokines IL-1 or TNF-α. CL-1 cells were cultured on a 24-well plate (CORNING) at a cell density of 2500 cells/cm^2 to confluent, after which hTGF-β1 was daily added to the medium for 5 days at a final concentration of 1.0 ng/ml. Then, mouse interleukin 1α (mIL-1α; R & D systems) and mouse tumor necrosis factor-a (mTNF-α; R & D systems) were daily added to the medium for 5 days at a final concentration of 0.1, 1.0 or 10 ng/ml, and the cells were cultured. Then, the stainability of CL-1 cells with Alcian blue (pH 1.0) was determined as described hereinbefore. As a result, the stainability with Alcian blue (pH 1.0) decreased in the presence of mIL-1α at 0.1 ng/ml or more (see FIG. 15) and mTNF-α at 1.0 ng/ml or more (see FIG. 16).

In the case of “hIGF-I: human insulin-like growth factor-I (CHEMICON INTERNATIONAL)”, the “accumulation of Oil red O-positive lipid droplets in CL-1 cells” value (CL-1 cells [1]; compared with the medium alone) is reported as “promoted”, the “stainability with Alcian blue (pH 1.0)” value (CL-1 cells [2]; 100 ng/ml, similar test, 3 weeks) is reported as “increase” and the “Alcian blue (pH 1.0)-positive nodules” value (CL-1 cells [2]; 3 weeks post confluent) is reported as “clearly increased”.

For `C=C1/C(=C\C=C2/CCC[C@]3(C)[C@@H]([C@H](C)CCCC(C)(C)O)CC[C@@H]23)C[C@@H](O)C[C@@H]1O` [1,25-dihydroxyvitamin D3], the “intracellular accumulation of Oil red O-positive lipid droplets” value (CL-1 cells [1]; 10^−3 M at each medium change, 3 weeks) was “remarkably inhibits” and the “amount of Ca deposition” value (CL-1 cells [3]) was “significantly inhibited”.

`O=P(O)(O)OC(CO)CO` [β-glycerophosphate] was tested, and the “Alizarin red S staining of nodules” value (CL-1 cells [4]) was “turned positive”.

With “hTGF-β1: human transforming growth factor-β1 (AUSTRAL Biologicals), known to have cartilage-inducing ability” the “stainability with Alcian blue (pH 1.0)” value (CL-1 cells [2]; 0.1, 1.0 or 10 ng/ml added at each medium change, 3 weeks post confluent, absorbance at 620 nm) was “increased dose-dependently”, the “Alcian blue (pH 1.0)-positive nodules” value (CL-1 cells [2]; 3 weeks post confluent) was “clearly increased” and the “increase of the uptake of 35S-labeled sulfuric acid” value (CL-1 cells [5]; 0.1, 1.0 or 10 ng/ml, FIG. 21) was “about double”. The “concentration with statistically significant increase of the uptake of 35S-labeled sulfuric acid” value (CL-1 cells [5]; vs control containing the medium alone, 48 h after addition) was no less than 0.1 ng/mL and the “stainability of ATDC-5 cells with Alcian blue (pH 1.0)” value (ATDC-5 cells) was “dose-dependently decreased”.

B1: mIL-1α: mouse interleukin 1α (R & D systems), inflammatory cytokine (protein, UniProt P01582 115-270, looked up)
Interleukin-1 alpha: SAPYTYQSDLRYKLMKLVRQKFVMNDSLNQTIYQDVDKHYLSTTWLNDLQQEVKFDMYAYSSGGDDSKYPVTLKISDSQLFVSAQGEDQPVLLKELPETPKLITGSETDLIFFWKSINSKNYFTSAAYPELFIATKEQSRVHLARGLPSMTDFQIS
B1 was tested, and the “destruction of cartilage-like tissues formed by CL-1 cells in the presence of human TGF-β1” value (CL-1 cells [6]) was “destroyed” and the “concentration at which stainability with Alcian blue (pH 1.0) decreased” value (CL-1 cells [6]; daily added for 5 days after 5 days of hTGF-β1 1.0 ng/ml) was no less than 0.1 ng/ml.
